Source: patent US8552201B2, “5, 6-bisaryl-2-pyridine-carboxamide derivatives, preparation and application thereof in therapeutics as urotensin II receptor antagonists” (Sanofi, priority 2006, dated 2013)
Structures can show the parent of a compound that is named as a salt.

How the values were obtained:
[1] = molecular target: T1, human GPR14 receptor (Homo sapiens, UniProt Q9UKP6); test: FlipR test of intracellular calcium mobilization (CHO GPR14 cells, urotensin II 3 nM); assay type: cell-based; details: CHOGPR14 cells, inhibition of urotensin II (3 nM final) induced Ca2+ increase, Fluo-4AM
T1 construct: expressed in transfected cells; host or cells: CHO cells (CHOGPR14)
T1 sequence (Q9UKP6 1-389): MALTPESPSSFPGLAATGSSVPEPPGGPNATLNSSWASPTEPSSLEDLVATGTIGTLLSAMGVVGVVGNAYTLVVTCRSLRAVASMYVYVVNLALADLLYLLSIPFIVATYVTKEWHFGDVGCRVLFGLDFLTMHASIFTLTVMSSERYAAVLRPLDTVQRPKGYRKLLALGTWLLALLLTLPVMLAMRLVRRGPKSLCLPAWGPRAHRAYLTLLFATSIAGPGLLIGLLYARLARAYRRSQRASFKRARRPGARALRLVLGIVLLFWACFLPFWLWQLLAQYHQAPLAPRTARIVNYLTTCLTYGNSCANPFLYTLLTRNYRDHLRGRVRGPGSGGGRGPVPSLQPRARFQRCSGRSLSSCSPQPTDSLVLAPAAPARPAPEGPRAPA
Excerpt: (§1) The compounds according to the invention have undergone pharmacological testing for determining the properties of the compounds of the invention, including in particular: • a test in vitro of intracellular calcium mobilization (FlipR test) employing urotensin II antagonists (the compounds of the present invention) of the human GPR14 receptor, • a function test of contraction of rat aorta rings, also employing urotensin II antagonists represented by the compounds of the present invention.
1. FlipR (Fluorometric Imaging Plate Reader) Protocol
The purpose is to measure the activation of the GPR14 receptor by human urotensin II.
GPR14 is a Gq-coupled receptor with 7 transmembrane domains. Its activation by a specific ligand causes an increase in Ca^2+ in the cell via the PLC (Phospholipase C), IP3 (Inositol-1,4,5-triphosphate) DAG (Diacylglycerol) pathway. The increase in Ca^2+ in the cell is measured by means of the Fluo4AM permeating probe (mono-excitation, mono-emission probe) which binds to free Ca^2+ and emits at 520 nm. The free probe is non-fluorescent in the absence of Ca^2+.
1) Seeding of the cells on D−1 (Day−1) or D−2
2) Incorporation/loading (D0) of the probe (1 h)
3) Addition of the products to the FlipR and measurement
4) Addition of the ligand to the FlipR and measurement in the presence of the products
5) Processing and exporting the data
The cells are cultivated in complete medium in Flask T225. For the experiments, the cells are transplanted in 200 μl of culture medium in 96-well (black, transparent-bottom) plates at a rate of 60 000 cells/well for use on D+1 or 40 000 cells/well for use on D+2.
The Fluo-4AM is prepared at 20 mM then aliquots are taken (50 μl) and stored at −20° C. away from the light. A solution of pluronic acid at 200 mg/ml in DMSO is also prepared (it has a shelf life of one week at room temperature away from the light).
The cells are charged with the Fluo-4AM+pluronic acid mixture (aliquot 50 μl+50 μl of pluronic acid) diluted to 1/100 in the measurement buffer.
After washing the wells with 150 μl of measurement buffer (cf. annex), the cells are then charged as follows: • distribution of 100 μl of measurement buffer in each well • addition of 10 μl of the Fluo-4AM+pluronic acid mixture diluted to 1/100.
The cells are incubated for 1 h at 37° C. away from the light, in an incubator in the presence of 5% CO2.
The cells are then washed 3 times with 150 μl of measurement buffer to remove the excess of the probe. A volume of 150 μl of buffer is added to each well at the end of washing.
After incubating the plates for 20 min at room temperature away from the light, they are placed in the FlipR for measurement of fluorescence.
The level of basic incorporation of the Fluo-4 is checked for each plate (sd<10%) before the first injection.
After stabilization of the basic signal, the GPR14 inhibiting compounds are injected by the FlipR under a volume of 50 μl from a dilution plate effected with Biomek 2000 in measurement buffer. […] Data recording is carried out continuously throughout the experiment.
For each plate, the basic fluorescence before injection of the compounds is standardized by the “spatial uniformity correction” function of the FlipR. The values of fluorescence measured just before injection of urotensin II (min) and those of the fluorescence measured at the peak of the effect of urotensin II (max) are exported under Excel. In each plate, a series of wells is treated with urotensin alone in the absence of inhibitor compound. The min and max fluorescence values for these wells are averaged for defining 100% effect of urotensin II. The percentage inhibition calculated for each concentration of inhibitor is calculated as follows: • for each well with Uro II (urotensin II)+inhibitor, calculation of the delta product value=max−min • for the well with Uro II alone, calculation of the value delta Uro II (average max−average min) […]

[2] = molecular target: T2, urotensin II receptors (rat aorta rings) (Rattus norvegicus, UniProt P49684); test: Contraction of rat aorta rings induced by human urotensin II; details: endothelium-denuded Sprague-Dawley rat aorta rings, antagonist added 30 min before urotensin II, single concentration
T2 construct: The aortas are removed, washed and, after removing the endothelium, are cut into 4 rings; from tissue; host or cells: rat thoracic aorta rings, endothelium removed (Sprague-Dawley)
T2 sequence (P49684 1-386): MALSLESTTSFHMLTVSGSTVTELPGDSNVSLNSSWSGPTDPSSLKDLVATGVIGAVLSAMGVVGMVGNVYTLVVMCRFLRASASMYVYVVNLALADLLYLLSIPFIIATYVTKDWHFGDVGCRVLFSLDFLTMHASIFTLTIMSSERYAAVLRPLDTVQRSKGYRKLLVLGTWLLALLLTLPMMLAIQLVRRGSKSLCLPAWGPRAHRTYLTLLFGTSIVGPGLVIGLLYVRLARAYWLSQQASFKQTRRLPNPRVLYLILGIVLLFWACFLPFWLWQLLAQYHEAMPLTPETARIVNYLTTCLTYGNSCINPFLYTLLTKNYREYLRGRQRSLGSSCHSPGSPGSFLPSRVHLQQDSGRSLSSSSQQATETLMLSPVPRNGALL
Excerpt: as §1
2. Contraction of Rat Aorta
Male Sprague-Dawley rats (400-500 g; C. River, France) are anaesthetized with 6% sodium pentobarbital (Ceva SantéAnimale) by intraperitoneal injection (0.4-0.5 ml), and then euthanized by exsanguination. The aortas are removed, washed and, after removing the endothelium, are cut into 4 rings of about 0.2-0.3 cm. Each fragment is placed in a container for isolated organs, containing 20 mL of Krebs solution with the following composition (mM): NaCl 118; KCl 4.7; MgCl2 1.2; CaCl2 2.6; NaHCO3 25; glucose 11.1; (pH=7.4).
The tissue, maintained at 37° and aerated with a stream of carbogen (95% O2-5% CO2), is connected to a Grass FT03 isometric sensor under a basic strain of 2 g, and to a Gould series 6600 amplifier for recording the variations in strain. Data acquisition is effected automatically on an HP Compaq PC using IOX software (version 2.2) from the company Emka.
After stabilization for 60 min, the viability of the preparation is tested by prestimulation with 60 mM of KCl. This contraction is repeated a second time and the strain that developed will serve as reference (100%) for standardizing the response to urotensin II.
The curve of concentration v. contractile response to urotensin II is then constructed cumulatively until a maximum response is obtained.
A single concentration-response curve is recorded owing to the desensitization effects induced by urotensin II.
The antagonists or the vehicle (DMSO 0.15% maximum) are added to the container 30 min before the agonist.
Human urotensin II is obtained from Bachem Ltd (UK) and is dissolved in 0.1% of BSA.
The responses are expressed as percentage of the maximum contraction observed with KCl. The results represent the mean+/−sem of the individual responses. N corresponds to the number of animals per batch.
Analysis of the sigmoid curves using the Everstat software (De Lean A, Munson P J, Rodbard D., Am J Physiol 1978; 235(2): E97-102.) permitted the EC50 (concentration producing 50% of the maximum response) and the Emax (maximum effect) to be determined.
To evaluate the potency of the antagonists based on a single concentration, the pKb were calculated according to the equation: pKb=−log [antagonist]M+log(concentration-ratio−1) (Furchgott R F, Blaschko H, Muscholl E, editors. Handbook of Exp Pharmacol, Catecholamines, Springer, Berlin Heidelberg N.Y.; 1972; 33:283-335) where concentration-ratio is the EC50 of the agonist in the presence of the antagonist divided by the EC50 of the agonist in the absence of the antagonist.
If several concentrations of antagonist are tested, the pA2 (±confidence limits) is calculated by the Schild plot method (Arunlakshana O and Schild H O, Br J Pharmacol, 1959; 14:48-58).

| Structure (SMILES) | IC50 [1] | Kb [2] | melting point |
| --- | --- | --- | --- |
| Cc1ccccc1-c1ccc(C(=O)NC2(C(=O)O)CCCCCC2)nc1-c1ccc(Cl)c(OCCCN(C)C)c1 [compound 71] | 24 nM | 501 nM | – |
| Cc1ccc(C)c(-c2ccc(C(=O)NC3(C(=O)O)CCCCC3)nc2-c2ccc(Cl)c(OCCCN(C)C)c2)c1 [compound 70] | 32 nM | 631 nM | – |
| Cc1cccnc1-c1ccc(C(=O)NC2(C(=O)O)CCCCC2)nc1-c1ccc(Cl)c(OCCCN(C)C)c1 [compound 58] | 28 nM | 251 nM | – |
| Cc1ccc(-c2ccc(C(=O)NC3(C(=O)O)CCCCC3)nc2-c2ccc(Cl)c(OCCCN(C)C)c2)c(C)c1 [compound 66, 1-({[6-{4-Chloro-3-[3-(dimethylamino)propoxy]phenyl}-5-(2,4-dimethylphenyl)pyridin-2-yl]carbonyl}amino)cyclohexanecarboxylic acid hydrochloride] | 4.2 nM | 200 nM | – |
| Cc1ccccc1-c1ccc(C(=O)NC2(C(=O)O)CCCCC2)nc1-c1ccc(Cl)c(OCCCN(C)C)c1.Cl [compound 34, 1-({[6-{4-Chloro-3-[3-(dimethylamino)propoxy]phenyl}-5-(2-methylphenyl)pyridin-2-yl]carbonyl}amino)cyclohexanecarboxylic acid hydrochloride] | 25 nM | 79.4 nM | 146 to 150 °C |
| Cc1ccc(-c2ncc(C(=O)NC3(C(=O)O)CCCCC3)nc2-c2ccc(Cl)c(OCCCN(C)C)c2)c(C)c1 [compound 123] | 4.2 nM | 316 nM | – |
| Cc1ccccc1-c1ccc(C(=O)NC2(C(=O)O)C3CC4CC(C3)CC2C4)nc1-c1ccc(Cl)c(OCCCN(C)C)c1 (stereo not shown) [Compound No. 18, 2-({[6-{4-Chloro-3-[3-(dimethylamino)propoxy]phenyl}-5-(2-methylphenyl)pyridin-2-yl]carbonyl}amino)adamantane-2-carboxylic acid hydrochloride] | 19 nM | 316 nM | – |
| CN(C)CCCOc1cc(-c2nc(C(=O)NC3(C(=O)O)CCCCC3)ccc2-c2ncc(Cl)cc2Cl)ccc1Cl [compound 65, 1-{[(3,5-Dichloro-2′-{4-chloro-3-[3-(dimethylamino)propoxy]phenyl}-2,3′-bipyridin-6′-yl)carbonyl]amino}cyclohexanecarboxylic acid hydrochloride] | 32 nM | 316 nM | – |
| Cc1ncccc1-c1ccc(C(=O)NC2(C(=O)O)CCCCC2)nc1-c1ccc(Cl)c(OCCCN(C)C)c1 [compound 61] | 9 nM | 79.4 nM | – |
| Cc1ccccc1-c1ccc(C(=O)N[C@@H](CC(=O)O)C(C)C)nc1-c1ccc(Cl)c(OCCCN(C)C)c1 [compound 37] | 72 nM | 31.6 nM | – |
| CCc1ccccc1-c1ccc(C(=O)NC2(C(=O)O)CCCCC2)nc1-c1ccc(Cl)c(OCCCN(C)C)c1 [compound 67] | 13 nM | 200 nM | – |
| COc1ccc(-c2ccc(C(=O)NC3(C(=O)O)CCCCC3)nc2-c2ccc(Cl)c(OCCCN(C)C)c2)c(Cl)c1 [compound 79] | 31 nM | 158 nM | – |
| Cc1cc(C)n(-c2ccc(C(=O)NC3(C(=O)O)CCCCC3)nc2-c2ccc(Cl)c(OCCCN(C)C)c2)n1 [compound 75, 1-({[6-{4-Chloro-3-[3-(dimethylamino)propoxy]phenyl}-5-(3,5-dimethyl-1H-pyrazol-1-yl)pyridin-2-yl]carbonyl}amino)cyclohexanecarboxylic acid hydrochloride] | 21 nM | 251 nM | – |
| Cc1ccccc1-c1nc(N)c(C(=O)NC2(C(=O)O)CCCCC2)nc1-c1ccc(Cl)c(OCCCN(C)C)c1 [compound 129, 1-({[3-amino-6-{4-chloro-3-[3-(dimethylamino)propoxy]phenyl}-5-(2-methylphenyl)pyrazin-2-yl]carbonyl}amino)cyclohexanecarboxylic acid hydrochloride] | 15 nM | 158 nM | – |
| Cc1ccc(C(C)C)cc1-c1ccc(C(=O)NC2(C(=O)O)CCCCC2)nc1-c1ccc(Cl)c(OCCCN(C)C)c1 [compound 120] | 16 nM | 79.4 nM | – |
